Values of other authors in patent publication US8062666B2 (priority 2001, dated 2011).
Read-outs that look alike come from different tables or passages of the source.

Tests used:
[1] = 0.2 M sodium chloride
[2] = coated spheroid extended release dosage form of WO 99/22724, dissolution specification

COc1ccc(C(CN(C)C)C2(O)CCCCC2)cc1.Cl (racemic) [Venlafaxine hydrochloride, (R/S)-1-[2-(dimethylamino)-1-(4-methoxyphenyl)-ethyl]cyclohexanol hydrochloride]
octanol:water partition coefficient [1]: 0.43
time at which peak blood plasma levels appeared (conventional release dosage forms (tablets)): 2 to 4 h
time for which plasma levels rose after administration (time to peak) (extended release dosage forms): five to eight
Average % venlafaxine HCL release ([2]; 2 hrs): <30%
Average % venlafaxine HCL release ([2]; 4 hrs): 30-55%
Average % venlafaxine HCL release ([2]; 8 hrs): 55-80%
Average % venlafaxine HCL release ([2]; 12 hrs): 65-90%
Average % venlafaxine HCL release ([2]; 24 hrs): >80%
